Laboratory results published in patent US10766903B2 (ALMAC DISCOVERY LIMITED, priority 2016, dated 2020).
pIC50: −log10 of the molar value. Where two headings read alike, the source gives them in different places.

Target: USP7 (Homo sapiens (Human), UniProt Q93009)
Assay: USP7 fluorescence polarisation (FP) biochemical assay, ubiquitin-Lys-TAMRA substrate
Settings: average of at least duplicate experiments
How it was run: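 Full-length His6-USP7 (2.5 nM) incubated ± inhibitor (8-point dilutions, 200 to 0.1 μM before addition) in 50 mM HEPES pH 7.2, 150 mM NaCl, 0.5 mM EDTA, 5 mM DTT, 0.05% BSA, 0.05% CHAPS. Ubiquitin-Lys-TAMRA cleavage followed by FP (ex 530/em 575 nm) every 15 min for 1.5 h; normalised to no-compound control.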

[1] = Table 4, biochemical assay, read-out: USP7 IC50
[2] = USP7 IC50, Table 4, biochemical assay

Chain of USP7 (Q93009 whole entry): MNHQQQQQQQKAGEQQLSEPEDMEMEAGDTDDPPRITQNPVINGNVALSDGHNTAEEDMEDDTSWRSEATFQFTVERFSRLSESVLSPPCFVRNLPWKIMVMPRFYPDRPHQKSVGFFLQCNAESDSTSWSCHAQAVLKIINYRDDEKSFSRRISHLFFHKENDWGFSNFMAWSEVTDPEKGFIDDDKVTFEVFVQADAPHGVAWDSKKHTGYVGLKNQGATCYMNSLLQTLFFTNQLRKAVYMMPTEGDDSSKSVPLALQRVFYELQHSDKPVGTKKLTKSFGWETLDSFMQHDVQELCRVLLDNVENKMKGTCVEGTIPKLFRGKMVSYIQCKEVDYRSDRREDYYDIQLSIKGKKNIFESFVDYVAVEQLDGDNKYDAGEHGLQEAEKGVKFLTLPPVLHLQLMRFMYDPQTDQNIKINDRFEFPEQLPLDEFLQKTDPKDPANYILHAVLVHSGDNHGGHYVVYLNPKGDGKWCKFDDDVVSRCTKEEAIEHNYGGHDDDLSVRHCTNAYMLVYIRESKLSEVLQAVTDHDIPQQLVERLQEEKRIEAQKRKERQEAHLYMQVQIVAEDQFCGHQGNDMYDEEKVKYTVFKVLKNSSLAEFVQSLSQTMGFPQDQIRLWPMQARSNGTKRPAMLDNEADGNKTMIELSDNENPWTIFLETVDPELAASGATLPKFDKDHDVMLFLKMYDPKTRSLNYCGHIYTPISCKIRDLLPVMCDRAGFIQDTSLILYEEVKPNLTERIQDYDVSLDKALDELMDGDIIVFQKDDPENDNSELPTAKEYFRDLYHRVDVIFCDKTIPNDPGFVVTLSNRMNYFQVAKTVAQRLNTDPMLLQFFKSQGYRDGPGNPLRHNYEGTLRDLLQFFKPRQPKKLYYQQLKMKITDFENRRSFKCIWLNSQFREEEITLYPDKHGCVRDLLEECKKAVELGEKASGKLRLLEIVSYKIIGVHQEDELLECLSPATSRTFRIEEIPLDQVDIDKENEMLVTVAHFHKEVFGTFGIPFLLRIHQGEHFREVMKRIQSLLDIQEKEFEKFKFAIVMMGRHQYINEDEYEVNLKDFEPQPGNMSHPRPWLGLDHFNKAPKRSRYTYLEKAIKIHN

| pIC50 [1] | pIC50 [2] | SMILES |
| --- | --- | --- |
| 3.70 to 6.00 |  | C[C@H](CC(=O)N1CCC(O)(Cn2cnc(N3CC4CCOC4C3)cc2=O)CC1)c1ccccc1 (stereo partly drawn) [Example 153, 3-((4-hydroxy-1-((R)-3-phenylbutanoyl)piperidin-4-yl)methyl)-6-(tetrahydro-2H-furo[2,3-c]pyrrol-5(3H)-yl)pyrimidin-4(3H)-one] |
| 3.70 to 6.00 |  | C[C@H](CC(=O)N1CCC(O)(Cn2cnc(NCc3ccnn3C)cc2=O)CC1)c1ccccc1 [Example 154, (R)-3-((4-hydroxy-1-(3-phenylbutanoyl)piperidin-4-yl)methyl)-6-(((1-methyl-1H-pyrazol-5-yl)methyl)amino)pyrimidin-4(3H)-one] |
| 3.70 to 6.00 |  | C[C@H](CC(=O)N1CCC(O)(Cn2cnc(NC3(C)COC3)cc2=O)CC1)c1ccccc1 [Example 155, (R)-3-((4-hydroxy-1-(3-phenylbutanoyl)piperidin-4-yl)methyl)-6-((3-methyloxetan-3-yl)amino)pyrimidin-4(3H)-one] |
| 3.70 to 6.00 |  | C[C@H](CC(=O)N1CCC(O)(Cn2cnc(N3CCC(c4ccn[nH]4)CC3)cc2=O)CC1)c1ccccc1 [Example 156, (R)-6-(4-(1H-pyrazol-5-yl)piperidin-1-yl)-3-((4-hydroxy-1-(3-phenylbutanoyl)piperidin-4-yl)methyl)pyrimidin-4(3H)-one] |
| 3.70 to 6.00 |  | C[C@H](CC(=O)N1CCC(O)(Cn2cnc(NCc3ccc(Cl)cc3)cc2=O)CC1)c1ccccc1 [Example 157, (R)-6-((4-chlorobenzyl)amino)-3-((4-hydroxy-1-(3-phenylbutanoyl)piperidin-4-yl)methyl)pyrimidin-4(3H)-one] |
| 3.70 to 6.00 |  | C[C@H](CC(=O)N1CCC(O)(Cn2cnc(N3CCN(Cc4cccnc4)CC3)cc2=O)CC1)c1ccccc1 [Example 158, (R)-3-((4-hydroxy-1-(3-phenylbutanoyl)piperidin-4-yl)methyl)-6-(4-(pyridin-3-ylmethyl)piperazin-1-yl)pyrimidin-4(3H)-one] |
| 3.70 to 6.00 |  | C[C@H](CC(=O)N1CCC(O)(Cn2cnc(N3CCN(Cc4ccccn4)CC3)cc2=O)CC1)c1ccccc1 [Example 159, (R)-3-((4-hydroxy-1-(3-phenylbutanoyl)piperidin-4-yl)methyl)-6-(4-(pyridin-2-ylmethyl)piperazin-1-yl)pyrimidin-4(3H)-one] |
| 3.70 to 6.00 |  | C[C@H](CC(=O)N1CCC(O)(Cn2cnc(N3CCC(F)(F)CC3)cc2=O)CC1)c1ccccc1 [Example 160, (R)-6-(4,4-difluoropiperidin-1-yl)-3-((4-hydroxy-1-(3-phenylbutanoyl)piperidin-4-yl)methyl)pyrimidin-4(3H)-one] |
| 3.70 to 6.00 |  | C[C@H](CC(=O)N1CCC(O)(Cn2cnc(NCC(=O)N(C)C)cc2=O)CC1)c1ccccc1 [Example 161, (R)-2-((1-((4-hydroxy-1-(3-phenylbutanoyl)piperidin-4-yl)methyl)-6-oxo-1,6-dihydropyrimidin-4-yl)amino)-N,N-dimethylacetamide] |
| 3.70 to 6.00 |  | C[C@H](CC(=O)N1CCC(O)(Cn2cnc(NCc3ccc4c(c3)OCCO4)cc2=O)CC1)c1ccccc1 [Example 162, (R)-6-(((2,3-dihydrobenzo[b][1,4]dioxin-6-yl)methyl)amino)-3-((4-hydroxy-1-(3-phenylbutanoyl)piperidin-4-yl)methyl)pyrimidin-4(3H)-one] |
| 3.70 to 6.00 |  | C[C@H](CC(=O)N1CCC(O)(Cn2cnc(NCC3CCOCC3)cc2=O)CC1)c1ccccc1 [Example 163, (R)-3-((4-hydroxy-1-(3-phenylbutanoyl)piperidin-4-yl)methyl)-6-(((tetrahydro-2H-pyran-4-yl)methyl)amino)pyrimidin-4(3H)-one] |
| 3.70 to 6.00 |  | C[C@H](CC(=O)N1CCC(O)(Cn2cnc(N3CC(C(=O)NCC4CC4)C3)cc2=O)CC1)c1ccccc1 [Example 164, (R)-N-(cyclopropylmethyl)-1-(1-((4-hydroxy-1-(3-phenylbutanoyl)piperidin-4-yl)methyl)-6-oxo-1,6-dihydropyrimidin-4-yl)azetidine-3-carboxamide] |
| 3.70 to 6.00 |  | C[C@H](CC(=O)N1CCC(O)(Cn2cnc(N3CC(F)C3)cc2=O)CC1)c1ccccc1 [Example 165, (R)-6-(3-fluoroazetidin-1-yl)-3-((4-hydroxy-1-(3-phenylbutanoyl)piperidin-4-yl)methyl)pyrimidin-4(3H)-one] |
| 3.70 to 6.00 |  | C[C@H](CC(=O)N1CCC(O)(Cn2cnc(N(C)CCO)cc2=O)CC1)c1ccccc1 [Example 166, (R)-3-((4-hydroxy-1-(3-phenylbutanoyl)piperidin-4-yl)methyl)-6-((2-hydroxyethyl)(methyl)amino)pyrimidin-4(3H)-one] |
|  | 6.00 to 6.60 | C[C@H](CC(=O)N1CCC(O)(Cn2cnc(NC3CCCC3)cc2=O)CC1)c1ccccc1 [Example 167, (R)-6-(cyclopentylamino)-3-((4-hydroxy-1-(3-phenylbutanoyl)piperidin-4-yl)methyl)pyrimidin-4(3H)-one] |
| 3.70 to 6.00 |  | C[C@H](CC(=O)N1CCC(O)(Cn2cnc(N3CCN(C)C(=O)C3)cc2=O)CC1)c1ccccc1 [Example 168, (R)-3-((4-hydroxy-1-(3-phenylbutanoyl)piperidin-4-yl)methyl)-6-(4-methyl-3-oxopiperazin-1-yl)pyrimidin-4(3H)-one] |
| 3.70 to 6.00 |  | C[C@H](CC(=O)N1CCC(O)(Cn2cnc(N3CC4(CCCO4)C3)cc2=O)CC1)c1ccccc1 [Example 169, (R)-3-((4-hydroxy-1-(3-phenylbutanoyl)piperidin-4-yl)methyl)-6-(5-oxa-2-azaspiro[3.4]octan-2-yl)pyrimidin-4(3H)-one] |
| 3.70 to 6.00 |  | Cc1nn(C)cc1Nc1cc(=O)n(CC2(O)CCN(C(=O)C[C@@H](C)c3ccccc3)CC2)cn1 [Example 170, (R)-6-((1,3-dimethyl-1H-pyrazol-4-yl)amino)-3-((4-hydroxy-1-(3-phenylbutanoyl)piperidin-4-yl)methyl)pyrimidin-4(3H)-one] |
| 3.70 to 6.00 |  | C[C@H](CC(=O)N1CCC(O)(Cn2cnc(N3CC4(CN(C)CCO4)C3)cc2=O)CC1)c1ccccc1 [Example 171, (R)-3-((4-hydroxy-1-(3-phenylbutanoyl)piperidin-4-yl)methyl)-6-(8-methyl-5-oxa-2,8-diazaspiro[3.5]nonan-2-yl)pyrimidin-4(3H)-one] |
|  | 6.00 to 6.60 | CC(=O)N1CC2(C1)CN(c1cc(=O)n(CC3(O)CCN(C(=O)C[C@@H](C)c4ccccc4)CC3)cn1)C2 [Example 172, (R)-6-(6-acetyl-2,6-diazaspiro[3.3]heptan-2-yl)-3-((4-hydroxy-1-(3-phenylbutanoyl)piperidin-4-yl)methyl)pyrimidin-4(3H)-one] |
| 3.70 to 6.00 |  | C[C@H](CC(=O)N1CCC(O)(Cn2cnc(N3CC4(CCC4(F)F)C3)cc2=O)CC1)c1ccccc1 [Example 173, (R)-6-(5,5-difluoro-2-azaspiro[3.3]heptan-2-yl)-3-((4-hydroxy-1-(3-phenylbutanoyl)piperidin-4-yl)methyl)pyrimidin-4(3H)-one] |
|  | 6.00 to 6.60 | C[C@H](CC(=O)N1CCC(O)(Cn2cnc(N3CC4(CCOCC4)C3)cc2=O)CC1)c1ccccc1 [Example 174, (R)-3-((4-hydroxy-1-(3-phenylbutanoyl)piperidin-4-yl)methyl)-6-(7-oxa-2-azaspiro[3.5]nonan-2-yl)pyrimidin-4(3H)-one] |
| 3.70 to 6.00 |  | C[C@H](CC(=O)N1CCC(O)(Cn2cnc(N3CCC4(CC3)COC4)cc2=O)CC1)c1ccccc1 [Example 175, (R)-3-((4-hydroxy-1-(3-phenylbutanoyl)piperidin-4-yl)methyl)-6-(2-oxa-7-azaspiro[3.5]nonan-7-yl)pyrimidin-4(3H)-one] |
|  | 6.00 to 6.60 | C[C@H](CC(=O)N1CCC(O)(Cn2cnc(N3CC4(CCOC4)C3)cc2=O)CC1)c1ccccc1 [Example 176, (R)-3-((4-hydroxy-1-(3-phenylbutanoyl)piperidin-4-yl)methyl)-6-(6-oxa-2-azaspiro[3.4]octan-2-yl)pyrimidin-4(3H)-one] |
| 3.70 to 6.00 |  | C[C@H](CC(=O)N1CCC(O)(Cn2cnc(N(CCO)Cc3cccnc3)cc2=O)CC1)c1ccccc1 [Example 177, (R)-3-((4-hydroxy-1-(3-phenylbutanoyl)piperidin-4-yl)methyl)-6-((2-hydroxyethyl)(pyridin-3-ylmethyl)amino)pyrimidin-4(3H)-one] |
|  | 6.00 to 6.60 | C[C@H](CC(=O)N1CCC(O)(Cn2cnc(N3CC4(CCCN4C)C3)cc2=O)CC1)c1ccccc1 [Example 178, (R)-3-((4-hydroxy-1-(3-phenylbutanoyl)piperidin-4-yl)methyl)-6-(5-methyl-2,5-diazaspiro[3.4]octan-2-yl)pyrimidin-4(3H)-one] |
|  | 6.00 to 6.60 | C[C@H](CC(=O)N1CCC(O)(Cn2cnc(N3CCC4(COC4)C3)cc2=O)CC1)c1ccccc1 [Example 179, (R)-3-((4-hydroxy-1-(3-phenylbutanoyl)piperidin-4-yl)methyl)-6-(2-oxa-6-azaspiro[3.4]octan-6-yl)pyrimidin-4(3H)-one] |
| > 6.60 |  | C[C@H](CC(=O)N1CCC(O)(Cn2cnc3c(-c4ccc(C5(N)CCC5)cc4)n(C)nc3c2=O)CC1)c1ccccc1 [Example 182, (R)-3-(4-(1-Aminocyclobutyl)phenyl)-6-((4-hydroxy-1-(3-phenylbutanoyl)piperidin-4-yl)methyl)-2-methyl-2H-pyrazolo[4,3-d]pyrimidin-7(6H)-one] |
| 3.70 to 6.00 |  | O=C(CCC1CCC1)N1CCC(O)(Cn2cnc(NCCN3CCCC3)cc2=O)CC1 [Example 183, 3-((1-(3-Cyclobutylpropanoyl)-4-hydroxypiperidin-4-yl)methyl)-6-((2-(pyrrolidin-1-yl)ethyl)amino)pyrimidin-4(3H)-one] |
| 3.70 to 6.00 |  | O=C(C(C1CCC1)C1CCC1)N1CCC(O)(Cn2cnc(NCCN3CCCC3)cc2=O)CC1 [Example 184, 3-((1-(2,2-Dicyclobutylacetyl)-4-hydroxypiperidin-4-yl)methyl)-6-((2-(pyrrolidin-1-yl)ethyl)amino)pyrimidin-4(3H)-one] |
